Kd and GI50 data for 7 molecules are collected here from patent publication US20260159520A1, “HETEROBIFUNCTIONAL COMPOUNDS AND METHODS OF TREATING DISEASE” (Halda Therapeutics OpCo, Inc., priority 2022, published 2026).

The target of one assay is T1, androgen receptor (Homo sapiens, UniProt P10275).
T1 construct: endogenous in cells; host or cells: unnamed cells (cytosol fraction)
T1 sequence (P10275 1-920): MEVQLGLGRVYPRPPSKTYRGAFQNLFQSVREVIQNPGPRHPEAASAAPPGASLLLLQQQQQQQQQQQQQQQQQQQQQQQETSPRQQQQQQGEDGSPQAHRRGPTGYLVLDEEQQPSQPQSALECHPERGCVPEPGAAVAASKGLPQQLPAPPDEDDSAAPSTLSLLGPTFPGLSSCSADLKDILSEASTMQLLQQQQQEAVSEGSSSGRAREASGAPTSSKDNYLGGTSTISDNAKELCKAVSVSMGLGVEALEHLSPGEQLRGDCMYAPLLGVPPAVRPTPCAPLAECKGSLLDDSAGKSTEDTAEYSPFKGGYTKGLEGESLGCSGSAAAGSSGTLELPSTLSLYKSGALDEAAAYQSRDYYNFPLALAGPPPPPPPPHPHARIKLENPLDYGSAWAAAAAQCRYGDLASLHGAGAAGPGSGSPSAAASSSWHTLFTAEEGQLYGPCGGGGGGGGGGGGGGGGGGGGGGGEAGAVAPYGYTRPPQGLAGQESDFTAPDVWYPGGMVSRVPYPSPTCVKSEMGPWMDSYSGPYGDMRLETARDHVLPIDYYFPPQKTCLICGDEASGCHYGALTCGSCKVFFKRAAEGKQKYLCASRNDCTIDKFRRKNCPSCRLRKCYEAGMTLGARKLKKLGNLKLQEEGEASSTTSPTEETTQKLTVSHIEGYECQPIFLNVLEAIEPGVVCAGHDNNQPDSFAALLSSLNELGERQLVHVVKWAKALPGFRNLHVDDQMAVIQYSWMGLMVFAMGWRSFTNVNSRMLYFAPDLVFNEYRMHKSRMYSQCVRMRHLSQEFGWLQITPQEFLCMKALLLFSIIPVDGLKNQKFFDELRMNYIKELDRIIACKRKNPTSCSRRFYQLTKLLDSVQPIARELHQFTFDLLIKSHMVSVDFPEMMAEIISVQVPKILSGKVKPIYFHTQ
The assay can be described thus: Binding affinity to androgen receptor ([3H]methyltrienolone radioligand, cell cytosol). To be noted: Table 6. The procedure: Fractions of cell cytosol ([…]) were incubated for 24 hr at 4° C. with 1 nM [^3H]methyltrienolone in the absence or presence of the test compound in a buffer containing 25 mM Hepes-Tris (pH 7.4), 1 mM EDTA, 10 mM Na2MoO4, 2 mM DTT, 5 μM triamcinolone acetonide, and 10% glycerol. Nonspecific binding was determined in the presence of 1 μM testosterone. Following incubation, the samples were filtered rapidly under vacuum through glass fiber filters (GF/B, Packard) presoaked with 0.3% PEI and rinsed several times with ice-cold 50 mM Tris-HCl using a 96-sample cell harvester (Unifilter, Packard). The filters were dried then counted for radioactivity in a scintillation counter (Topcount, Packard) using a scintillation cocktail (Microscint 0, Packard). The results are expressed as a percent inhibition of the control radioligand specific binding. The standard reference compound is testosterone, which is tested in each experiment at several concentrations to obtain a competition curve from which its IC50 is calculated.

The test system of assay [1] is T-Rex 293 cell line SC3 cells having increased expression of androgen receptor protein. The assay can be described thus: Cellular growth inhibition, T-Rex 293 SC3 cells with doxycycline (increased androgen receptor expression). It counts as cell-based. To be noted: with 10 ng/mL doxycycline (increased androgen receptor), 72 hours, CellTiter-Glo 2.0. In short, it runs like this: (§1)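 Doxycycline (10 ng/mL) was either included or omitted to toggle wild-type androgen receptor expression in SC3 cells, a T-Rex 293 clone, grown in stripped-serum, phenol red-free medium. After 72 hours with compound, viable cells were quantified by CellTiter-Glo 2.0.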

Assay [2] has as its system T-Rex 293 cell line SC3 cells lacking increased expression of androgen receptor protein. In words: Cellular growth inhibition, T-Rex 293 SC3 cells without doxycycline. It counts as cell-based. The settings on record: not exposed to doxycycline, 72 hours, CellTiter-Glo 2.0. The essentials:
as §1

For a further assay, the system named is VCaP cells. The assay can be described thus: Cellular growth inhibition assay for VCaP cells. The class given is cell-based. To be noted: Homo sapiens, 72 hours, CellTiter-Glo 2.0.
A further assay has as its target T2, CDK9 (Homo sapiens, UniProt P50750).
T2 construct: made in house; host or cells: E. coli BL21-derived host (T7 phage) or HEK-293 ('BEK-293' [sic])
In words: KdELECT binding assay, CDK9. The settings on record: CDK9, Table 7. As to the method: Compounds were tested using a KdELECT. Kinase-tagged T7 phage strains were prepared in an E. coli host derived from the BL21 strain. E. coli were grown to log-phase and infected with T7 phage and incubated with shaking at 32° C. until lysis. The lysates were centrifuged and filtered to remove cell debris. The remaining kinases were produced in BEK-293 cells and subsequently tagged with DNA for qPCR detection. Streptavidin-coated magnetic beads were treated with biotinylated small molecule ligands for 30 minutes at room temperature to generate affinity resins for kinase assays. The liganded beads were blocked with excess biotin and washed with blocking buffer (SeaBlock (Pierce), 1% BSA, 0.05% Tween 20, 1 mM DTT) to remove unbound ligand and to reduce non-specific binding. Binding reactions were assembled by combining kinases, liganded affinity beads, and test compounds in 1× binding buffer (20% SeaBlock, 0.17×PBS, 0.05% Tween 20, 6 mM DTT). Test compounds were prepared as 111× stocks in 100% DMSO. Kd values were determined using an 11-point 3-fold compound dilution series with three DMSO control points. All compounds for Kd measurements are distributed by acoustic transfer (non-contact dispensing) in 100% DMSO. The compounds were then diluted directly into the assays such that the final concentration of DMSO was 0.9%. All reactions performed in polypropylene 384-well plate. Each was a final volume of 0.02 mL. The assay plates were incubated at room temperature with shaking for 1 hour and the affinity beads were washed with wash buffer (lx PBS, 0.05% Tween 20). The beads were then re-suspended in elution buffer (lx PBS, 0.05% Tween 20, 0.5 μM nonbiotinylated affinity ligand) and incubated at room temperature with shaking for 30 minutes. The kinase concentration in the eluates was measured by qPCR.

T2 sequence (P50750 whole entry): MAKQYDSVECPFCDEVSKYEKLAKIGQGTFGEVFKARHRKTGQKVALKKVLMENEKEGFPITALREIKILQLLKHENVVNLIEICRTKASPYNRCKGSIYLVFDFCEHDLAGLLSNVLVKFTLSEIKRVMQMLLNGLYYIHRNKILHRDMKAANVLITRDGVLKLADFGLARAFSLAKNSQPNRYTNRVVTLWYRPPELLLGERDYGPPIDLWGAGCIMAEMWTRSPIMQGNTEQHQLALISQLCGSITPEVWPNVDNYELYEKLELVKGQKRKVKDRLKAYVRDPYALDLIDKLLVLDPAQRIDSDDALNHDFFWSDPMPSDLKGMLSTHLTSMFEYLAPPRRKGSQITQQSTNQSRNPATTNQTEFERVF

In turn, `CCc1cnn2c(NCc3ccc(OCCCN4CCN(CCCN(C)c5ncc(C(=O)N[C@H]6C(C)(C)[C@H](Oc7ccc(C#N)c(Cl)c7)C6(C)C)cn5)CC4)nc3)cc(N3CCCC[C@H]3CCO)nc12` [Compound I-6, N-((1r,3r)-3-(3-chloro-4-cyanophenoxy)-2,2,4,4-tetramethylcyclobutyl)-2-((3-(4-(3-((5-(((3-ethyl-5-((S)-2-(2-hydroxyethyl)piperidin-1-yl)pyrazolo[1,5-a]pyrimidin-7-yl)amino)methyl)pyridin-2-yl)oxy)propyl)piperazin-1-yl)propyl)(methyl)amino)pyrimidine-5-carboxamide] displayed a Kd at androgen receptor of under 50 nM. The GI50 in assay [1] was under 100 nM; in assay [2] it was 100 to 1000 nM.
On androgen receptor, `CCc1cnn2c(NCc3ccc(OCCCN4CCN(CCCOC5CCN(c6ncc(C(=O)N[C@H]7C(C)(C)[C@H](Oc8ccc(C#N)c(Cl)c8)C7(C)C)cn6)CC5)CC4)nc3)cc(N3CCCC[C@H]3CCO)nc12` [Compound I-11] registered a Kd of under 50 nM. In addition, the GI50 was under 100 nM in assay [1], 100 to 1000 nM in assay [2] and under 100 nM in the assay on VCaP cells.
Turning to `CCc1cnn2c(N(C)Cc3ccc(OCCOCCOCCOCCOCCN(C)c4ncc(C(=O)N[C@H]5C(C)(C)[C@H](Oc6ccc(C#N)c(Cl)c6)C5(C)C)cn4)nc3)cc(N3CCCC[C@H]3CCO)nc12` [Compound I-12], the values for the Kd on androgen receptor and at CDK9 were under 50 nM and over 2500 nM, respectively. In addition, the GI50 in assay [1] and in assay [2] was over 3500 nM each time.
`CCc1cnn2c(N(C)Cc3ccc(OCCOCCOCCOC4CCN(c5ncc(C(=O)N[C@H]6C(C)(C)[C@H](Oc7ccc(C#N)c(Cl)c7)C6(C)C)cn5)CC4)nc3)cc(N3CCCC[C@H]3CCO)nc12` [Compound I-25]: the Kd is under 50 nM at androgen receptor and over 2500 nM on CDK9. Further, the GI50 in assay [1] and in assay [2] was over 3500 nM in each case.
On to `CCc1cnn2c(NCc3ccc(OCCCCCCCCOC4CCN(c5ncc(C(=O)N[C@H]6C(C)(C)[C@H](Oc7ccc(C#N)c(Cl)c7)C6(C)C)cn5)CC4)nc3)cc(N3CCCC[C@H]3CCO)nc12` [Compound I-31], for which the Kd at androgen receptor and on CDK9 was over 2500 nM throughout. In addition, the GI50 in assay [1] and in assay [2] was over 3500 nM throughout.
The molecule `CCc1cnn2c(NCc3ccc(OCCCN4CCN(CC5CCN(c6cnc(C(=O)N[C@H]7C(C)(C)[C@H](Oc8ccc(C#N)c(Cl)c8)C7(C)C)nc6)CC5)CC4)nc3)cc(N3CCCC[C@@H]3CCO)nc12` [Compound I-58, N-((1r,3r)-3-(3-chloro-4-cyanophenoxy)-2,2,4,4-tetramethylcyclobutyl)-5-(4-((4-(3-((5-(((3-ethyl-5-((R)-2-(2-hydroxyethyl)piperidin-1-yl)pyrazolo[1,5-a]pyrimidin-7-yl)amino)methyl)pyridin-2-yl)oxy)propyl)piperazin-1-yl)methyl)piperidin-1-yl)pyrimidine-2-carboxamide] showed a Kd on androgen receptor of 500 to 2500 nM. The figures for the GI50 (in assay [1]; in assay [2]; in the assay on VCaP cells) were 100 to 1000 nM, under 100 nM and 100 to 1000 nM, respectively.
In the case of `CCc1cnn2c(NCc3ccc(OCCOCCN(C)C45CC(N(C)c6ncc(C(=O)N[C@H]7C(C)(C)[C@H](Oc8ccc(C#N)c(Cl)c8)C7(C)C)cn6)(C4)C5)nc3)cc(N3CCCC[C@H]3CCO)nc12` [Compound I-83], the Kd at androgen receptor is under 50 nM. Further, the values for the GI50 (in assay [1]; in assay [2]; in the assay on VCaP cells) were under 100 nM, under 100 nM and 100 to 1000 nM, respectively.
